One assay deals with DsRED gene expression. Briefly: DsRED induction in transgenic tobacco leaf disks and T1 seedlings with Ethametsulfuron. The format is in vivo, Nicotiana tabacum. The conditions noted are these: T1 seeds germinated on 1 ppm Ethametsulfuron, monitored thru four leaf stage. The source says: A summary of the constructs shown in FIG. 4 is provided below in table 29. All vectors contain a right border (RB) proximal 35S::3xtetO-DsRED-UBQ3 inducible reporter cassette, a 35S::1xtetO-EsR(L13-32)-UBQ14 repressor cassette, and a SAMS-HRA-ALS left border (LB) proximal selectable marker. Inserted either upstream (pHD1194-1196) or downstream ([…]) of the repressor cassette are MMV::3xOp-siRNA^rep-Pin2 cassettes composed of an inverted repeat of the full length repressor coding region (no ATG-pHD1194 and 1197) or limited to the 5′ (pHD1195 & 1198) or 3′ (pHD1196 & 1199) halves of the SU repressor coding region linked by an intron spacer region. The MMV::tetO promoter was chosen so as not to cause silencing of the 35S::tetO promoter controlling target transgene expression. In this particular example the spacer region is the potato ST-LS1 gene intron IV2 (Construction of an intron-containing marker gene: splicing of the intron in transgenic plants and its use in monitoring early events in Agrobacterium-mediated plant transformation. Vancanneyt et al. (1990) Mol Gen Genet. 220(2):245-50). […] Nine fully derepressed DsRED positive seedings for each event were then transplanted into soil and their fluorescence phenotype monitored thru the four leaf developmental stage. […]

A further assay concerns DS-RED expression. Briefly: DS-RED induction in soybean T0 leaf discs floated on ethametsulfuron. The conditions noted are these: soybean T0 leaf discs of experimental plants (pPHP46864, amiRNA) vs control pPHP46916; 0.05 ppm or 0.5 ppm, 3-4 days. The format is in vivo. The source says: (§1) The first, a control construct, pPHP46916 (10,904 bp) (SEQ ID NO: 2111) contains the following cassettes: cassette A comprising a Glycine max s-adenosylmethionine promoter operably linked to the Glycine max acetolactate synthase gene with HrA mutations operably linked to a Glycine max acetolactate synthase terminator (this cassette serves as a selectable marker during plant transformation; position 81-4062); followed by cassette B comprising the T7 promoter operably linked to hygromycin phosphotransferase operably linked to a T7 terminator (which serves as a selectable marker in E. coli, positions 5448-6586); followed by cassette C comprising a cauliflower mosaic virus 35S promoter with three copies of the TET operator embedded operably linked to DS-RED Express that has the potato LS1 intron; operably linked to the cauliflower mosaic virus 35S terminator (position 6862-8455), followed by cassette D comprising the Glycine max elongation factor 1a2 promoter operably linked to the repressor protein ESR (L10-B7) operably linked to the nos terminator (position 8474-10893). The second, experimental construct, pPHP46864 (11,868 bp) (SEQ ID NO:2112) is exactly the same except embedded within the potato LS1 intron at the Mfe1 site is a 964 bp cassette containing the Glycine max microRNA precursor 159 containing a microRNA that targets the repressor protein. […]

The test system of the next assay is DS-red signal. Briefly: DS-red signal in soybean T1 plants from seed imbibed with chlorsulfuron. In kind it is in vivo. To be noted: T1 seed imbibed with 1 ppm, two weeks.
Text: as §1

For `CCOc1nc(NC)nc(NC(=O)NS(=O)(=O)c2ccccc2C(=O)OC)n1` [Ethametsulfuron, Ethametsulfuron-methyl], the DsRED expression signal result in the assay with DsRED gene expression (pHD1180 control tobacco events (no siRNA cassette)) was “modest and diminishes”. Further, in the assay on DsRED gene expression (tobacco lines containing the MMV::tetO-siRNArep cassette (pHD1194-1199)), the DsRED intensity level entry was “high and remains so with time”. The “pattern of DS-RED expression in inducible leaf discs” value in the assay on DS-RED expression is “smoother, more even pattern of expression”.

For `COc1nc(C)nc(NC(=O)NS(=O)(=O)c2ccccc2Cl)n1` [chlorsulfuron], the DS-red signal result was “no DS-red signal found in root, stem or cotyledon” in the assay with DS-red signal (control soybean plants (pPHP46916)) and “weak DS-red signal” in the assay with DS-red signal (experimental soybean plants (pPHP46864, amiRNA)).
